Experimental data as given in patent US8552201B2, “5, 6-bisaryl-2-pyridine-carboxamide derivatives, preparation and application thereof in therapeutics as urotensin II receptor antagonists” (Sanofi, priority 2006, dated 2013).
Where a name gives a salt, the structure may show the parent alone.

Columns and labels:
human GPR14 receptor = biological target: T1, human GPR14 receptor (Homo sapiens, UniProt Q9UKP6); assay: FlipR test of intracellular calcium mobilization (CHO GPR14 cells, urotensin II 3 nM); type: cell-based; conditions: CHOGPR14 cells, inhibition of urotensin II (3 nM final) induced Ca2+ increase, Fluo-4AM
T1 construct: expressed in transfected cells; host or cells: CHO cells (CHOGPR14)
T1 sequence (Q9UKP6 1-389): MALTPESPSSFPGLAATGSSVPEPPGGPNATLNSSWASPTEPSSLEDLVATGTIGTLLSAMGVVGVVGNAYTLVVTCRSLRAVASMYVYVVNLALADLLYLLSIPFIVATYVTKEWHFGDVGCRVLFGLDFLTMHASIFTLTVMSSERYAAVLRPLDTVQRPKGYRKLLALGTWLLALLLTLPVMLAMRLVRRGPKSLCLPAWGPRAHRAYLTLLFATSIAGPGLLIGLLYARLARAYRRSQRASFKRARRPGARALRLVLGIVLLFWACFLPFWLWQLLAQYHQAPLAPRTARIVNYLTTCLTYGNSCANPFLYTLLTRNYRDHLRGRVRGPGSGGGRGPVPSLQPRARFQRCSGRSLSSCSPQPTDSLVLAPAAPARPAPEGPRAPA
Description: (§1) The compounds according to the invention have undergone pharmacological testing for determining the properties of the compounds of the invention, including in particular: • a test in vitro of intracellular calcium mobilization (FlipR test) employing urotensin II antagonists (the compounds of the present invention) of the human GPR14 receptor, • a function test of contraction of rat aorta rings, also employing urotensin II antagonists represented by the compounds of the present invention.
1. FlipR (Fluorometric Imaging Plate Reader) Protocol
The purpose is to measure the activation of the GPR14 receptor by human urotensin II.
GPR14 is a Gq-coupled receptor with 7 transmembrane domains. Its activation by a specific ligand causes an increase in Ca^2+ in the cell via the PLC (Phospholipase C), IP3 (Inositol-1,4,5-triphosphate) DAG (Diacylglycerol) pathway. The increase in Ca^2+ in the cell is measured by means of the Fluo4AM permeating probe (mono-excitation, mono-emission probe) which binds to free Ca^2+ and emits at 520 nm. The free probe is non-fluorescent in the absence of Ca^2+.
1) Seeding of the cells on D−1 (Day−1) or D−2
2) Incorporation/loading (D0) of the probe (1 h)
3) Addition of the products to the FlipR and measurement
4) Addition of the ligand to the FlipR and measurement in the presence of the products
5) Processing and exporting the data
The cells are cultivated in complete medium in Flask T225. For the experiments, the cells are transplanted in 200 μl of culture medium in 96-well (black, transparent-bottom) plates at a rate of 60 000 cells/well for use on D+1 or 40 000 cells/well for use on D+2.
The Fluo-4AM is prepared at 20 mM then aliquots are taken (50 μl) and stored at −20° C. away from the light. A solution of pluronic acid at 200 mg/ml in DMSO is also prepared (it has a shelf life of one week at room temperature away from the light).
The cells are charged with the Fluo-4AM+pluronic acid mixture (aliquot 50 μl+50 μl of pluronic acid) diluted to 1/100 in the measurement buffer.
After washing the wells with 150 μl of measurement buffer (cf. annex), the cells are then charged as follows: • distribution of 100 μl of measurement buffer in each well • addition of 10 μl of the Fluo-4AM+pluronic acid mixture diluted to 1/100.
The cells are incubated for 1 h at 37° C. away from the light, in an incubator in the presence of 5% CO2.
The cells are then washed 3 times with 150 μl of measurement buffer to remove the excess of the probe. A volume of 150 μl of buffer is added to each well at the end of washing.
After incubating the plates for 20 min at room temperature away from the light, they are placed in the FlipR for measurement of fluorescence.
The level of basic incorporation of the Fluo-4 is checked for each plate (sd<10%) before the first injection.
After stabilization of the basic signal, the GPR14 inhibiting compounds are injected by the FlipR under a volume of 50 μl from a dilution plate effected with Biomek 2000 in measurement buffer. […] Data recording is carried out continuously throughout the experiment.
For each plate, the basic fluorescence before injection of the compounds is standardized by the “spatial uniformity correction” function of the FlipR. The values of fluorescence measured just before injection of urotensin II (min) and those of the fluorescence measured at the peak of the effect of urotensin II (max) are exported under Excel. In each plate, a series of wells is treated with urotensin alone in the absence of inhibitor compound. The min and max fluorescence values for these wells are averaged for defining 100% effect of urotensin II. The percentage inhibition calculated for each concentration of inhibitor is calculated as follows: • for each well with Uro II (urotensin II)+inhibitor, calculation of the delta product value=max−min • for the well with Uro II alone, calculation of the value delta Uro II (average max−average min) […]

[1] = biological target: T2, urotensin II receptors (rat aorta rings) (Rattus norvegicus, UniProt P49684); assay: Contraction of rat aorta rings induced by human urotensin II; conditions: endothelium-denuded Sprague-Dawley rat aorta rings, antagonist added 30 min before urotensin II, single concentration
T2 construct: The aortas are removed, washed and, after removing the endothelium, are cut into 4 rings; from tissue; host or cells: rat thoracic aorta rings, endothelium removed (Sprague-Dawley)
T2 sequence (P49684 1-386): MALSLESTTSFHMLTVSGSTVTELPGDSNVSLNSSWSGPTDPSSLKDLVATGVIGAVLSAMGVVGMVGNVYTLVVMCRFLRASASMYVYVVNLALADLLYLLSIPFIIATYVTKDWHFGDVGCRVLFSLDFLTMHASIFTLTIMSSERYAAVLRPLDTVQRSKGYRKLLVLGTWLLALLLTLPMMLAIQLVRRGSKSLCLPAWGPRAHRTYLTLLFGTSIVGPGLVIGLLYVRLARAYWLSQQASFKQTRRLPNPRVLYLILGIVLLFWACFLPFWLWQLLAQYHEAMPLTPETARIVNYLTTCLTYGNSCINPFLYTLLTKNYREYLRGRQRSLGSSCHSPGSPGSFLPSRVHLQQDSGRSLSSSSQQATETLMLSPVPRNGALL
Description: as §1
2. Contraction of Rat Aorta
Male Sprague-Dawley rats (400-500 g; C. River, France) are anaesthetized with 6% sodium pentobarbital (Ceva SantéAnimale) by intraperitoneal injection (0.4-0.5 ml), and then euthanized by exsanguination. The aortas are removed, washed and, after removing the endothelium, are cut into 4 rings of about 0.2-0.3 cm. Each fragment is placed in a container for isolated organs, containing 20 mL of Krebs solution with the following composition (mM): NaCl 118; KCl 4.7; MgCl2 1.2; CaCl2 2.6; NaHCO3 25; glucose 11.1; (pH=7.4).
The tissue, maintained at 37° and aerated with a stream of carbogen (95% O2-5% CO2), is connected to a Grass FT03 isometric sensor under a basic strain of 2 g, and to a Gould series 6600 amplifier for recording the variations in strain. Data acquisition is effected automatically on an HP Compaq PC using IOX software (version 2.2) from the company Emka.
After stabilization for 60 min, the viability of the preparation is tested by prestimulation with 60 mM of KCl. This contraction is repeated a second time and the strain that developed will serve as reference (100%) for standardizing the response to urotensin II.
The curve of concentration v. contractile response to urotensin II is then constructed cumulatively until a maximum response is obtained.
A single concentration-response curve is recorded owing to the desensitization effects induced by urotensin II.
The antagonists or the vehicle (DMSO 0.15% maximum) are added to the container 30 min before the agonist.
Human urotensin II is obtained from Bachem Ltd (UK) and is dissolved in 0.1% of BSA.
The responses are expressed as percentage of the maximum contraction observed with KCl. The results represent the mean+/−sem of the individual responses. N corresponds to the number of animals per batch.
Analysis of the sigmoid curves using the Everstat software (De Lean A, Munson P J, Rodbard D., Am J Physiol 1978; 235(2): E97-102.) permitted the EC50 (concentration producing 50% of the maximum response) and the Emax (maximum effect) to be determined.
To evaluate the potency of the antagonists based on a single concentration, the pKb were calculated according to the equation: pKb=−log [antagonist]M+log(concentration-ratio−1) (Furchgott R F, Blaschko H, Muscholl E, editors. Handbook of Exp Pharmacol, Catecholamines, Springer, Berlin Heidelberg N.Y.; 1972; 33:283-335) where concentration-ratio is the EC50 of the agonist in the presence of the antagonist divided by the EC50 of the agonist in the absence of the antagonist.
If several concentrations of antagonist are tested, the pA2 (±confidence limits) is calculated by the Schild plot method (Arunlakshana O and Schild H O, Br J Pharmacol, 1959; 14:48-58).

Row | IC50 (human GPR14 receptor) [nM] | Kb [1] [nM] | melting point [°C] | SMILES
1 | 19 | 316 | – | Cc1ccccc1-c1ccc(C(=O)NC2(C(=O)O)C3CC4CC(C3)CC2C4)nc1-c1ccc(Cl)c(OCCCN(C)C)c1 (stereo not shown) [Compound No. 18, 2-({[6-{4-Chloro-3-[3-(dimethylamino)propoxy]phenyl}-5-(2-methylphenyl)pyridin-2-yl]carbonyl}amino)adamantane-2-carboxylic acid hydrochloride]
2 | 72 | 31.6 | – | Cc1ccccc1-c1ccc(C(=O)N[C@@H](CC(=O)O)C(C)C)nc1-c1ccc(Cl)c(OCCCN(C)C)c1 [compound 37]
3 | 32 | 316 | – | CN(C)CCCOc1cc(-c2nc(C(=O)NC3(C(=O)O)CCCCC3)ccc2-c2ncc(Cl)cc2Cl)ccc1Cl [compound 65, 1-{[(3,5-Dichloro-2′-{4-chloro-3-[3-(dimethylamino)propoxy]phenyl}-2,3′-bipyridin-6′-yl)carbonyl]amino}cyclohexanecarboxylic acid hydrochloride]
4 | 32 | 631 | – | Cc1ccc(C)c(-c2ccc(C(=O)NC3(C(=O)O)CCCCC3)nc2-c2ccc(Cl)c(OCCCN(C)C)c2)c1 [compound 70]
5 | 24 | 501 | – | Cc1ccccc1-c1ccc(C(=O)NC2(C(=O)O)CCCCCC2)nc1-c1ccc(Cl)c(OCCCN(C)C)c1 [compound 71]
6 | 31 | 158 | – | COc1ccc(-c2ccc(C(=O)NC3(C(=O)O)CCCCC3)nc2-c2ccc(Cl)c(OCCCN(C)C)c2)c(Cl)c1 [compound 79]
7 | 4.2 | 316 | – | Cc1ccc(-c2ncc(C(=O)NC3(C(=O)O)CCCCC3)nc2-c2ccc(Cl)c(OCCCN(C)C)c2)c(C)c1 [compound 123]

Further lines, the molecule ahead of its results:

Row | SMILES | IC50 (human GPR14 receptor) [nM] | Kb [1] [nM] | melting point [°C]
8 | Cc1ccccc1-c1ccc(C(=O)NC2(C(=O)O)CCCCC2)nc1-c1ccc(Cl)c(OCCCN(C)C)c1.Cl [compound 34, 1-({[6-{4-Chloro-3-[3-(dimethylamino)propoxy]phenyl}-5-(2-methylphenyl)pyridin-2-yl]carbonyl}amino)cyclohexanecarboxylic acid hydrochloride] | 25 | 79.4 | 146 to 150
9 | Cc1cccnc1-c1ccc(C(=O)NC2(C(=O)O)CCCCC2)nc1-c1ccc(Cl)c(OCCCN(C)C)c1 [compound 58] | 28 | 251 | –
10 | Cc1ncccc1-c1ccc(C(=O)NC2(C(=O)O)CCCCC2)nc1-c1ccc(Cl)c(OCCCN(C)C)c1 [compound 61] | 9 | 79.4 | –
11 | Cc1ccc(-c2ccc(C(=O)NC3(C(=O)O)CCCCC3)nc2-c2ccc(Cl)c(OCCCN(C)C)c2)c(C)c1 [compound 66, 1-({[6-{4-Chloro-3-[3-(dimethylamino)propoxy]phenyl}-5-(2,4-dimethylphenyl)pyridin-2-yl]carbonyl}amino)cyclohexanecarboxylic acid hydrochloride] | 4.2 | 200 | –
12 | CCc1ccccc1-c1ccc(C(=O)NC2(C(=O)O)CCCCC2)nc1-c1ccc(Cl)c(OCCCN(C)C)c1 [compound 67] | 13 | 200 | –
13 | Cc1cc(C)n(-c2ccc(C(=O)NC3(C(=O)O)CCCCC3)nc2-c2ccc(Cl)c(OCCCN(C)C)c2)n1 [compound 75, 1-({[6-{4-Chloro-3-[3-(dimethylamino)propoxy]phenyl}-5-(3,5-dimethyl-1H-pyrazol-1-yl)pyridin-2-yl]carbonyl}amino)cyclohexanecarboxylic acid hydrochloride] | 21 | 251 | –
14 | Cc1ccc(C(C)C)cc1-c1ccc(C(=O)NC2(C(=O)O)CCCCC2)nc1-c1ccc(Cl)c(OCCCN(C)C)c1 [compound 120] | 16 | 79.4 | –
15 | Cc1ccccc1-c1nc(N)c(C(=O)NC2(C(=O)O)CCCCC2)nc1-c1ccc(Cl)c(OCCCN(C)C)c1 [compound 129, 1-({[3-amino-6-{4-chloro-3-[3-(dimethylamino)propoxy]phenyl}-5-(2-methylphenyl)pyrazin-2-yl]carbonyl}amino)cyclohexanecarboxylic acid hydrochloride] | 15 | 158 | –
